Source: PubChem BioAssay (NCI)
“And” between values parts separate entries of the source, which are not always exact repeats. Equal entries are not always repeated.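 Compound exposure: 48 hours, 5 concentrations, 96-well plates. GI50 = concentration required for 50% inhibition of growth. The concentration for full growth arrest is given as TGI.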

Experiments:
Test in all cases: NCI tumour cell line growth inhibition, 48 h
A549 NSCLC = test system: A549 NSCLC
M19-MEL melanoma = test system: M19-MEL melanoma
TK-10 renal = test system: TK-10 renal
T-47D breast = test system: T-47D breast
NCI-H226 lung = test system: NCI-H226 lung
SR leukemia = test system: SR leukemia
SW-620 colon = test system: SW-620 colon
PC-3 prostate = test system: PC-3 prostate
HL-60(TB) leukemia = test system: HL-60(TB) leukemia
SK-OV-3 ovarian = test system: SK-OV-3 ovarian
DU-145 prostate = test system: DU-145 prostate
EKVX NSCLC = test system: EKVX NSCLC
RXF 393 renal = test system: RXF 393 renal
DMS 114 small cell lung = test system: DMS 114 small cell lung
DLD-1 colon = test system: DLD-1 colon
SN12C renal = test system: SN12C renal
NCI-H23 lung = test system: NCI-H23 lung
DMS 273 small cell lung = test system: DMS 273 small cell lung
BT-549 breast = test system: BT-549 breast
SK-MEL-2 melanoma = test system: SK-MEL-2 melanoma
SNB-19 CNS = test system: SNB-19 CNS
ACHN renal = test system: ACHN renal
SF-539 CNS = test system: SF-539 CNS
SK-MEL-28 melanoma = test system: SK-MEL-28 melanoma
K-562 leukemia = test system: K-562 leukemia
HOP-92 NSCLC = test system: HOP-92 NSCLC
CCRF-CEM leukemia = test system: CCRF-CEM leukemia
HOP-62 NSCLC = test system: HOP-62 NSCLC
A498 renal = test system: A498 renal
IGROV1 ovarian = test system: IGROV1 ovarian
SK-MEL-5 melanoma = test system: SK-MEL-5 melanoma
OVCAR-3 ovarian = test system: OVCAR-3 ovarian
MDA-MB-231 breast = test system: MDA-MB-231 breast
HOP-18 NSCLC = test system: HOP-18 NSCLC
HS 578T breast = test system: HS 578T breast
OVCAR-5 ovarian = test system: OVCAR-5 ovarian
RXF-631 renal = test system: RXF-631 renal
LXFL 529 NSCLC = test system: LXFL 529 NSCLC
UO-31 renal = test system: UO-31 renal
MDA-MB-435 = test system: MDA-MB-435
SNB-78 CNS = test system: SNB-78 CNS
KM20L2 colon = test system: KM20L2 colon

Structure (SMILES): [Cl][Sn]([c]1ccccc1)([c]1ccccc1)[c]1ccccc1
- TGI (A549 NSCLC): 410 nM and 176 nM and 46.9 nM
- GI50 (M19-MEL melanoma): 30.6 nM and 18.1 nM
- TGI (M19-MEL melanoma): 96.9 nM and 43 nM
- GI50 (TK-10 renal): 240 nM and 148 nM
- TGI (TK-10 renal): 604 nM and 283 nM
- GI50 (T-47D breast): 171 nM
- TGI (T-47D breast): 412 nM
- GI50 (NCI-H226 lung): 194 nM and 271 nM and 278 nM
- TGI (NCI-H226 lung): 423 nM and 484 nM and 433 nM
- TGI (SR leukemia): 860 nM and 552 nM and 112 nM
- GI50 (SW-620 colon): 30.3 nM and < 10 nM
- TGI (SW-620 colon): 104 nM and 22.9 nM
- GI50 (PC-3 prostate): 327 nM
- TGI (PC-3 prostate): 1020 nM
- TGI (HL-60(TB) leukemia): 899 nM and 99.7 nM
- GI50 (SK-OV-3 ovarian): 239 nM and 178 nM
- TGI (SK-OV-3 ovarian): 696 nM and 335 nM
- GI50 (DU-145 prostate): 210 nM
- TGI (DU-145 prostate): 428 nM
- TGI (EKVX NSCLC): 985 nM and 239 nM and 119 nM
- GI50 (RXF 393 renal): 161 nM and 19.6 nM
- TGI (RXF 393 renal): 324 nM and 43.4 nM
- GI50 (DMS 114 small cell lung): 23.7 nM and 18.6 nM
- TGI (DMS 114 small cell lung): 62 nM and 102 nM
- GI50 (DLD-1 colon): 37.8 nM and < 10 nM
- TGI (DLD-1 colon): 140 nM and 28.2 nM
- GI50 (SN12C renal): 31 nM and 14.2 nM
- TGI (SN12C renal): 114 nM and 65.1 nM
- GI50 (NCI-H23 lung): 81.5 nM and 13.3 nM
- TGI (NCI-H23 lung): 285 nM and 45.6 nM
- GI50 (DMS 273 small cell lung): 28.3 nM
- TGI (DMS 273 small cell lung): 76.1 nM
- GI50 (BT-549 breast): 282 nM
- TGI (BT-549 breast): 968 nM
- TGI (SK-MEL-2 melanoma): 524 nM and 196 nM and 57.8 nM
- GI50 (SNB-19 CNS): 314 nM and 113 nM and 35.5 nM
- TGI (SNB-19 CNS): 1070 nM and 240 nM and 129 nM
- GI50 (ACHN renal): 213 nM and 34 nM and 21.5 nM
- GI50 (SF-539 CNS): 250 nM and 109 nM and 28.4 nM
- TGI (SF-539 CNS): 642 nM and 244 nM and 84.7 nM
- GI50 (SK-MEL-28 melanoma): 196 nM and 26.3 nM and 22.9 nM
- TGI (SK-MEL-28 melanoma): 414 nM and 146 nM and 80.8 nM
- GI50 (K-562 leukemia): 302 nM
- TGI (K-562 leukemia): 892 nM
- GI50 (HOP-92 NSCLC): 93.9 nM and 122 nM and 13.9 nM
- GI50 (CCRF-CEM leukemia): 29 nM
- TGI (CCRF-CEM leukemia): 156 nM
- GI50 (HOP-62 NSCLC): 210 nM and 57.5 nM and 132 nM
- TGI (HOP-62 NSCLC): 467 nM and 188 nM and 287 nM
- GI50 (A498 renal): 165 nM and 45.6 nM
- TGI (A498 renal): 523 nM and 159 nM
- GI50 (IGROV1 ovarian): 316 nM and 53.1 nM
- TGI (IGROV1 ovarian): 865 nM and 196 nM
- GI50 (SK-MEL-5 melanoma): 166 nM and 114 nM and 40.8 nM
- TGI (SK-MEL-5 melanoma): 325 nM and 242 nM and 158 nM
- TGI (OVCAR-3 ovarian): 362 nM and 42.2 nM and 56.6 nM
- GI50 (MDA-MB-231 breast): 216 nM
- TGI (MDA-MB-231 breast): 540 nM
- GI50 (HOP-18 NSCLC): 29.3 nM
- TGI (HOP-18 NSCLC): 113 nM
- GI50 (HS 578T breast): 378 nM
- TGI (HS 578T breast): 23000 nM
- TGI (OVCAR-5 ovarian): 456 nM and 266 nM and 90.1 nM
- GI50 (RXF-631 renal): 47.2 nM
- TGI (RXF-631 renal): 149 nM
- GI50 (LXFL 529 NSCLC): 35.3 nM and 22.7 nM
- TGI (LXFL 529 NSCLC): 131 nM and 79.8 nM
- GI50 (UO-31 renal): 183 nM and 86.3 nM and 34.3 nM
- TGI (UO-31 renal): 366 nM and 209 nM and 127 nM
- GI50 (MDA-MB-435): 186 nM
- TGI (MDA-MB-435): 420 nM
- GI50 (SNB-78 CNS): 84.7 nM and 21.9 nM
- TGI (SNB-78 CNS): 439 nM and 85.1 nM
- GI50 (KM20L2 colon): 34 nM and 18.6 nM
- TGI (KM20L2 colon): 110 nM and 45.4 nM
